According to article PMC7217877, “N-AS-triggered SPMs are direct regulators of microglia in a model of Alzheimer’s disease” (Nature Communications, 2020):
Values joined by “and” are separate entries in the source; they are usually repeats but may differ in a detail not shown here. Identical values can stand only once.

What was measured:
COX2 WT = target: T1, COX2 WT (Homo sapiens, UniProt P35354); assay: in vitro [14C] acetylation assay of purified COX2; format: biochemical; details: purified COX2 + 14C-labelled acetyl donor, 2 h, 37 °C, scintillation counter, replicates, in cpm (unit assumed)
T1 construct: His (N); made in house
T1 sequence (P35354 18-604): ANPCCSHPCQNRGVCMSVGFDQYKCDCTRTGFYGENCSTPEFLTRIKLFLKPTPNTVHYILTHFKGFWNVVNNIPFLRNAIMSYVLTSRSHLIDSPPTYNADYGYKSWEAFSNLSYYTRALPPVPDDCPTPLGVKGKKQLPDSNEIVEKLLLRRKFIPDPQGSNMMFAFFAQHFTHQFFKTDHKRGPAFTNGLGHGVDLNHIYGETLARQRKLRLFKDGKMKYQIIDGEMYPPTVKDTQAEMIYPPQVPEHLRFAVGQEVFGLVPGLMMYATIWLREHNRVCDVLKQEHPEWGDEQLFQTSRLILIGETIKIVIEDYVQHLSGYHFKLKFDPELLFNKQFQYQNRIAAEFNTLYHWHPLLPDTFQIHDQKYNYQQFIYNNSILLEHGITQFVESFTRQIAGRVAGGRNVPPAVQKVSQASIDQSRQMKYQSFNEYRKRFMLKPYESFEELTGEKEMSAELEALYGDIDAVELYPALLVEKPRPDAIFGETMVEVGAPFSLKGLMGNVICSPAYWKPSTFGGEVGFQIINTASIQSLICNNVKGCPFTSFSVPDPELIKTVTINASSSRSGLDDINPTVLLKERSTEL

microglia = assay: western blotting for ac-S565 and total COX2 in primary cells; format: cell-based, C57BL/6 mice; design: ac-S565, western blotting (Fig 3h): scale not given here; details: replicates
Description: To confirm the generation and roles of N-AS in neurons, cells from E18 C57BL/6 mice were prepared as previously described. Cortices were dissected and then dissociated followed by incubation in papain (Worthington) at 37 °C for 15 min. Neurons were plated on poly-L-lysine-coated coverslips with neuronal culture medium, serum-free Neurobasal medium (Gibco) containing 2% B27 supplements (Gibco), 1 mM Glutamax supplement (Gibco), and 100 U ml^−1 streptomycin/ 100 U ml^−1 penicillin (Gibco) at 37 °C in a humidified atmosphere of 5% CO2. Aβ 1–42 (10 μM, 24 h, Invitrogen, 03112) was exposed to neurons and the cells were analyzed for the generation and roles of N-AS. Primary astrocyte cultures were prepared from C57BL/6 mice as described previously. In brief, after removal of the meninges, postnatal day 7 (P7) mouse brain tissues were minced and incubated in a rocking water bath at 37 °C for 30 min in the presence of 0.25% trypsin-EDTA (Sigma-Aldrich). Enzyme-digested dissociated cells were triturated with astrocyte-specific medium (DMEM/F12 containing 10% FBS and 1% penicillin-streptomycin) and centrifuged at 155×g for 8 min. The pellet was resuspended in astrocyte-specific medium and passed through a 40-μm cell strainer. The filtrate was allowed pre-adherence for 30 min to remove any contamination from fibroblasts before being seeded in dishes and the addition of astrocyte-specific medium. To split the cells, Ara-C was added to the dishes and they were then placed in a heated shaker for 6–7 h. The medium was removed from the dishes, and trypsin-EDTA was added to the dish and incubated at 37 °C for 5–10 min. After centrifugation at 155×g for 8 min, the supernatant was removed, and the astrocytes were maintained in culture by feeding […] with astrocyte-specific medium. Primary microglia cultures were prepared from C57BL/6 mice as described previously. In brief, the cortices of 2-months-old mice were minced in Hibernate A (Gibco)/B27 supplements (Gibco) medium and dissociated using papain (Worthington) solution. After tissue trituration, cells were separated by Optiprep (Sigma-Aldrich) density gradient centrifugation. Microglia were plated with microglia-specific medium (DMEM/F12 containing 10% FBS and 1% penicillin-streptomycin). The immortalized human microglia (Applied Biologics Materials, T0251) were cultured in PriGrow III (Applied Biologics Materials, TM003) (supplemented with 10% FBS and 1% penicillin-streptomycin) at 37 °C in a humidified atmosphere of 5% CO2. In order to assess the clinical importance of N-AS in AD microglia, Aβ 1–42 (50 μM, 24 h, Invitrogen, 03112) was exposed to human microglia before treated with zileuton (50 μM, 24 h, Sigma-Aldrich, Z4277). The human microglia treated with Aβ 1–42 and/or zileuton was incubated with N-AS (2.5 μM, 2 h, Sigma-Aldrich, 01912), and were analyzed for the generation and roles of N-AS.
Samples were lysed in RIPA buffer (Cell signaling Technologies), then subjected to SDS-PAGE and transferred to a nitrocellulose membrane. Membranes were blocked with 5% milk, incubated with primary antibody and then incubated with the appropriate horseradish peroxidase-conjugated secondary antibody. […] We performed densitometric quantification using the ImageJ software (National Institutes of Health). Images have been cropped for presentation.

CC(=O)SCCNC(=O)CCNC(=O)[C@H](O)C(C)(C)COP(=O)(O)OP(=O)(O)OC[C@H]1O[C@@H](n2cnc3c(N)ncnc32)[C@H](O)[C@@H]1OP(=O)(O)O [Acetyl-CoA, acetyl-CoA]
C14 radioactivity of COX2, acetylation assay (Fig 1b) (COX2 WT; listed as C14 Acetyl CoA): 4565 and 4620 and 4766 and 3817 | ac-S565, western blotting (Fig 3h) (microglia; Ab 10mM + supplement): 1.293 and 1.204 and 1.322 and 1.2834

CC(=O)Oc1ccccc1C(=O)O [Aspirin, acetylsalicylic acid, reference compound]
C14 radioactivity of COX2, acetylation assay (Fig 1b) (COX2 WT; listed as C14 Aspirin): 16445 and 14504 and 14566 and 16561 and 14595 and 14332 and 14859

CCCCCCCCCCCCC/C=C/[C@@H](O)[C@H](CO)NC(C)=O [N-AS, N-((2S,3R,E)-1,3-Dihydroxyoctadec-4-en-2-yl)acetamide]
C14 radioactivity of COX2, acetylation assay (Fig 1b) (COX2 WT; listed as C14 N-AS): 347557 and 414691 and 285538 and 348458 and 418276 and 416508 and 283195 | ac-S565, western blotting (Fig 3h) (microglia; Ab 10mM + supplement): 1.339 and 1.447 and 1.994 and 1.362

CCCCCCCCCCCCC/C=C/[C@@H](O)[C@@H](N)CO [Sph, sphingosine]
ac-S565, western blotting (Fig 3h) (microglia; Ab 10mM + supplement): 0.2446 and 0.241 and 0.1599 and 0.2328

Ab: Aβ 1–42 (Invitrogen, 03112) used to induce an AD environment in cells
ac-S565, western blotting (Fig 3h) (microglia; Ab 10mM, no supplement): 0.2316 and 0.2169 and 0.2234 and 0.1511 | ac-S565 / total COX2, western blotting (Fig 3b) (microglia; Ab 10mM): 0.3907 and 0.4255 and 0.3575 and 0.3077 and 0.4081 and 0.3915

B1: Sphk1: purified sphingosine kinase1 enzyme (Cayman, 10348) supplemented to cell lysates (protein, UniProt Q9NYA1 1-384, looked up)
Sphingosine kinase 1: MDPAGGPRGVLPRPCRVLVLLNPRGGKGKALQLFRSHVQPLLAEAEISFTLMLTERRNHARELVRSEELGRWDALVVMSGDGLMHEVVNGLMERPDWETAIQKPLCSLPAGSGNALAASLNHYAGYEQVTNEDLLTNCTLLLCRRLLSPMNLLSLHTASGLRLFSVLSLAWGFIADVDLESEKYRRLGEMRFTLGTFLRLAALRTYRGRLAYLPVGRVGSKTPASPVVVQQGPVDAHLVPLEEPVPSHWTVVPDEDFVLVLALLHSHLGSEMFAAPMGRCAAGVMHLFYVRAGVSRAMLLRLFLAMEKGRHMEYECPYLVYVPVVAFRLEPKDGKGVFAVDGELMVSEAVQGQVHPNYFWMVSGCVEPPPSWKPQQMPPPEEPL
ac-S565, western blotting (Fig 3h) (microglia; Ab 10mM + supplement): 0.2731 and 0.2264 and 0.2811 and 0.241
